T/C data for 19 compounds are collected here from PubChem BioAssay AID192 (DTP/NCI, 2004).

For this assay, the system named is BDF1 mice, B16 melanoma ip, median survival T/C. The assay is described as follows: NCI In Vivo Anticancer Drug Screen. Data for tumor model B16 Melanoma (intraperitoneal) in B6D2F1 (BDF1) mice. Particulars: endpoint: median survival time, higher = longer survival. The method in brief: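 The ratio T/C compares compound-treated mice with vehicle-treated controls, using survival or tumor size as the endpoint in a transplantable tumor model.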

Where [1] appears, read: dose: 100.0 mg/kg/injection, schedule: Q01DX009 (ip), vehicle: saline.
[2] abbreviates: dose: 200.0 mg/kg/injection, schedule: Q01DX009 (ip), vehicle: saline.
Where [3] appears, read: dose: 100.0 mg/kg/injection, schedule: Q04DX003 (ip), vehicle: Klucel (hydroxypropylcellulose) (HPC).
Setting [4] is: dose: 12.5 mg/kg/injection, schedule: Q01DX009 (ip), vehicle: Klucel (hydroxypropylcellulose) (HPC).
Where [5] appears, read: dose: 25.0 mg/kg/injection, schedule: Q01DX009 (ip), vehicle: Klucel (hydroxypropylcellulose) (HPC).
Setting [6] is: dose: 25.0 mg/kg/injection, schedule: Q01DX009 (ip), vehicle: saline with Tween-80.
Setting [7] is: dose: 50.0 mg/kg/injection, schedule: Q01DX009 (ip), vehicle: saline with Tween-80.
Where [8] appears, read: dose: 50.0 mg/kg/injection, schedule: Q01DX009 (ip), vehicle: saline.
[9] abbreviates: dose: 100.0 mg/kg/injection, schedule: Q01DX009 (ip), vehicle: Klucel (hydroxypropylcellulose) (HPC).
[10] abbreviates: dose: 200.0 mg/kg/injection, schedule: Q01DX009 (ip), vehicle: Klucel (hydroxypropylcellulose) (HPC).
[11] abbreviates: dose: 400.0 mg/kg/injection, schedule: Q01DX009 (ip), vehicle: Klucel (hydroxypropylcellulose) (HPC).
Where [12] appears, read: dose: 1.5 mg/kg/injection, schedule: Q01DX009 (ip), vehicle: saline with Tween-80.
[13] abbreviates: dose: 6.25 mg/kg/injection, schedule: Q01DX009 (ip), vehicle: Klucel (hydroxypropylcellulose) (HPC).

Where “and” joins values, the source holds several entries; their conditions need not be identical. Equal values may be shown once. Inconclusive results and toxic doses are left out.

In the case of `CN[C@@H]1[C@H](O)[C@H](NC)[C@H]2O[C@@]3(O)C(=O)C[C@@H](C)O[C@H]3O[C@@H]2[C@H]1O`, the T/C under setting [1] was 108 % of control; the T/C under setting [2] is 103 % of control; the T/C (dose: 400.0 mg/kg/injection, schedule: Q01DX009 (ip), vehicle: saline) is 113 % of control.
Regarding `CCCCCCNC(=O)Nc1cccc(Cl)c1C`, the T/C was 92 % of control under setting [3]; 90 % of control (dose: 200.0 mg/kg/injection, schedule: Q04DX003 (ip), vehicle: Klucel (hydroxypropylcellulose) (HPC)); 87 % of control (dose: 400.0 mg/kg/injection, schedule: Q04DX003 (ip), vehicle: Klucel (hydroxypropylcellulose) (HPC)).
`CCN(CC)CCCC(C)Nc1ccnc(/C=C/c2ccc(Cl)cc2)c1` (stereo not drawn): the T/C under setting [4] is 86 % of control; the T/C (dose: 18.75 mg/kg/injection, schedule: Q04DX003 (ip), vehicle: saline) is 86 % of control; the T/C under setting [5] was 92 % of control; the T/C (dose: 37.5 mg/kg/injection, schedule: Q04DX003 (ip), vehicle: saline) was 93 % of control; the T/C (dose: 75.0 mg/kg/injection, schedule: Q04DX003 (ip), vehicle: saline) was 89 % of control.
For `CCC(C)(CC)OC(N)=O`, the T/C is 112 % of control under setting [6]; 95 % of control (dose: 25.0 mg/kg/injection, schedule: Q01DX009 (ip), vehicle: saline); 112 % of control under setting [7]; 95 % of control under setting [8]; 105 % of control (dose: 100.0 mg/kg/injection, schedule: Q01DX009 (ip), vehicle: saline with Tween-80); 100 % of control under setting [1]. The T/C was 104 % of control (dose: 200.0 mg/kg/injection, schedule: Q01DX009 (ip), vehicle: saline with Tween-80) and 95 % of control under setting [2].
On to `C=CCNC(=S)Nc1cc(Cl)ccc1OC`, for which the T/C is 93 % of control under setting [9], 93 % of control under setting [10] and 93 % of control under setting [11].
Turning to `CCCCCCCCCCCCCCCCCC(=O)NNCCO`, the T/C under setting [7] was 86 % of control.
Consider `O=NN(CCCl)C(=O)NC1CCC(=O)NC1=O` (stereo not drawn), for which the T/C (dose: 0.09 mg/kg/injection, schedule: Q01DX009 (ip), vehicle: saline) was 114 % of control; the T/C (dose: 0.18 mg/kg/injection, schedule: Q01DX009 (ip), vehicle: saline) was 111 % of control; the T/C (dose: 0.35 mg/kg/injection, schedule: Q01DX009 (ip), vehicle: saline) is 118 % of control; the T/C (dose: 0.7 mg/kg/injection, schedule: Q01DX009 (ip), vehicle: saline) is 114 % of control; the T/C (dose: 1.0 mg/kg/injection, schedule: Q01DX009 (ip), vehicle: saline with Tween-80) was 119 % of control; the T/C (dose: 1.1 mg/kg/injection, schedule: Q01DX009 (ip), vehicle: saline) was 152 % of control. Besides, the T/C was 165 % of control (dose: 1.6 mg/kg/injection, schedule: Q01DX009 (ip), vehicle: saline); 161 % of control (dose: 2.0 mg/kg/injection, schedule: Q01DX009 (ip), vehicle: saline with Tween-80); 193 % of control (dose: 4.0 mg/kg/injection, schedule: Q01DX009 (ip), vehicle: saline with Tween-80); 166 % of control (dose: 7.5 mg/kg/injection, schedule: Q01DX001 (ip), vehicle: saline + alcohol); 123 % of control (dose: 8.0 mg/kg/injection, schedule: Q01DX009 (ip), vehicle: saline with Tween-80); 245 % of control (dose: 15.0 mg/kg/injection, schedule: Q01DX001 (ip), vehicle: saline + alcohol). Further, the T/C (dose: 16.0 mg/kg/injection, schedule: Q01DX009 (ip), vehicle: saline with Tween-80) is 93 % of control.
As for `O=S(=O)(c1ccc(Cl)cc1)c1ccc(Cl)cc1`, the T/C (dose: 100.0 mg/kg/injection, schedule: Q04DX003 (ip), vehicle: saline with Tween-80) is 100 % of control; the T/C (dose: 200.0 mg/kg/injection, schedule: Q04DX003 (ip), vehicle: saline with Tween-80) was 97 % of control; the T/C (dose: 400.0 mg/kg/injection, schedule: Q04DX003 (ip), vehicle: saline with Tween-80) was 100 % of control.
As for `Nc1n[nH]c(C(=O)O)n1`, the T/C by setting is: under setting [9], 97 % of control; under setting [10], 97 % of control; under setting [11], 97 % of control.
As for `O=C(NCCN1CC1)C(=O)NCCN1CC1`, the T/C under setting [12] was 153 % of control; the T/C (dose: 3.12 mg/kg/injection, schedule: Q04DX003 (ip), vehicle: saline with Tween-80) is 178 % of control; the T/C (dose: 6.25 mg/kg/injection, schedule: Q04DX003 (ip), vehicle: saline with Tween-80) was 168 % of control.
Regarding `c1ccc(C(=C2CCC2)c2c3ccccc3cc3ccccc23)cc1`, the T/C runs as follows: (dose: 25.0 mg/kg/injection, schedule: Q04DX003 (ip), vehicle: Klucel (hydroxypropylcellulose) (HPC)) 102 % of control; (dose: 50.0 mg/kg/injection, schedule: Q04DX003 (ip), vehicle: Klucel (hydroxypropylcellulose) (HPC)) 91 % of control; under setting [3], 105 % of control.
As to `CCOC(=O)N(NC(=O)c1ccccc1)C(C)=O`, the T/C is 101 % of control (dose: 6.25 mg/kg/injection, schedule: Q01DX009 (ip), vehicle: other); 99 % of control (dose: 12.5 mg/kg/injection, schedule: Q01DX009 (ip), vehicle: other); 95 % of control (dose: 25.0 mg/kg/injection, schedule: Q01DX009 (ip), vehicle: other); 95 % of control (dose: 50.0 mg/kg/injection, schedule: Q01DX009 (ip), vehicle: other).
For the compound `CCN(CC)CCCC#CCN1CCOCC1`, the T/C reads like this: under setting [8], 115 % of control; under setting [1], 109 % of control; under setting [2], 100 % of control.
As to `CCC(CC)(COC(N)=O)COC(N)=O`, the T/C is, setting by setting: (dose: 0.78 mg/kg/injection, schedule: Q01DX009 (ip), vehicle: Klucel (hydroxypropylcellulose) (HPC)) 89 % of control; (dose: 1.56 mg/kg/injection, schedule: Q01DX009 (ip), vehicle: Klucel (hydroxypropylcellulose) (HPC)) 93 % of control; (dose: 3.12 mg/kg/injection, schedule: Q01DX009 (ip), vehicle: Klucel (hydroxypropylcellulose) (HPC)) 95 % of control; under setting [13], 97 % of control; under setting [4], 86 % of control.
As for `COc1ccc(NC(=O)Nc2ccc(C)c(Cl)c2)cc1`, the T/C (dose: 100.0 mg/kg/injection, schedule: Q01DX009 (sc), vehicle: olive oil, sesame oil, peanut oil) is 109 % of control; the T/C (dose: 200.0 mg/kg/injection, schedule: Q01DX009 (sc), vehicle: olive oil, sesame oil, peanut oil) was 100 % of control; the T/C (dose: 400.0 mg/kg/injection, schedule: Q01DX009 (sc), vehicle: olive oil, sesame oil, peanut oil) was 98 % of control.
Regarding `COc1ccc2c(c1)C13CCCCC1C(C2)N(CC1(c2ccccc2)CC1)CC3` (stereo not drawn), the T/C was 93 % of control (dose: 4.1 mg/kg/injection, schedule: Q01DX009 (ip), vehicle: Klucel (hydroxypropylcellulose) (HPC)); 93 % of control under setting [13]; 93 % of control and 109 % of control (dose: 9.3 mg/kg/injection, schedule: Q01DX009 (ip), vehicle: Klucel (hydroxypropylcellulose) (HPC)); 119 % of control under setting [4]; 121 % of control under setting [5]; 97 % of control (dose: 50.0 mg/kg/injection, schedule: Q01DX009 (ip), vehicle: Klucel (hydroxypropylcellulose) (HPC)).
Regarding `CC(C)N(C(=O)c1ccc(C(=O)N(c2ccccc2)C(C)C)cc1)c1ccccc1`, the T/C was 103 % of control (dose: 12.5 mg/kg/injection, schedule: Q01DX009 (ip), vehicle: saline with Tween-80); 99 % of control under setting [6]; 99 % of control under setting [7].
For `CC12CCC3C(CCC4CC(OC(=O)Cc5ccc(N(CCCl)CCCl)cc5)CCC43C)C1CCC(=O)N2` (stereo not drawn), the T/C was 113 % of control (dose: 0.75 mg/kg/injection, schedule: Q01DX009 (ip), vehicle: saline); 110 % of control under setting [12]; 121 % of control (dose: 1.5 mg/kg/injection, schedule: Q01DX009 (ip), vehicle: saline); 121 % of control (dose: 3.0 mg/kg/injection, schedule: Q01DX009 (ip), vehicle: saline); 154 % of control (dose: 12.0 mg/kg/injection, schedule: Q01DX009 (ip), vehicle: saline).
With `Oc1ccccc1/C=N/NC(=S)NC1CC2C=CC1C2` (stereo not drawn), the T/C (dose: 50.0 mg/kg/injection, schedule: Q01DX009 (ip), vehicle: olive oil, sesame oil, peanut oil) was 88 % of control.
